# Measured values taken from ChEMBL document CHEMBL3867434, “Regiospecific Prenylation of Hydroxyxanthones by a Plant Flavonoid Prenyltransferase” (J Nat Prod, 2016).
# Active and inactive are the calls of the source. No cut-off for these calls is given here.
# Test: Neuroprotective activity in human SK-N-SH cells assessed as inhibition of glutamate-induced injury by measuring increase in cell viability at 10 uM preincubated for 4 hrs followed by glutamate addition measured after 4 hrs by MTT assay
# Type: functional, cell-based
row,Compound,Activity
1,O=c1c2c(O)cc(O)cc2oc2cc(O)cc(O)c12,Active
2,CC(C)=CCc1c(O)cc2oc3cc(O)cc(O)c3c(=O)c2c1O,Active
3,O=c1c2cc(O)ccc2oc2cc(O)cc(O)c12,Active
4,CC(C)=CCc1c(O)cc2oc3cc(O)c(CC=C(C)C)c(O)c3c(=O)c2c1O,Active
5,CC(C)=CCc1c(O)cc2oc3ccc(O)cc3c(=O)c2c1O,Active

# Test: Neuroprotective activity in human SK-N-SH cells assessed as inhibition of glutamate-induced injury by measuring cell survival at 10 uM preincubated for 4 hrs followed by glutamate addition measured after 4 hrs by MTT assay relative to control
# Type: functional, cell-based
row,Compound,Survival [%]
1,Oc1ccc(/C=C/c2cc(O)cc(O)c2)cc1,79.9
2,CC(C)=CCc1c(O)cc2oc3ccc(O)cc3c(=O)c2c1O,82.9
